Like-named read-outs stand apart in the source and are kept apart here. Positions of bridges follow the written chain, without caps; N, C: chain ends. Non-standard residues stand in square brackets, D forms with d. Residues, ends and D or L forms follow the SMILES beside them. *: point of attachment. Ala(4-thiazolyl) = N[C@@H](Cc1cscn1)C(=O)O; Tyr(3-F) = N[C@@H](Cc1ccc(O)c(F)c1)C(=O)O; Met(O2) = CS(=O)(=O)CC[C@H](N)C(=O)O; Lys(Me2) = CN(C)CCCC[C@H](N)C(=O)O; NMeF = CN[C@@H](Cc1ccccc1)C(=O)O; 3Pal = N[C@@H](Cc1cccnc1)C(=O)O; NMeL = CN[C@@H](CC(C)C)C(=O)O; NMeA = CN[C@@H](C)C(=O)O; Piperidide = C1CCN(*)CC1; Sar = CNCC(=O)O
Tests used:
[1] = PAMPA (parallel artificial membrane permeability assay); assay type: in vitro ADME; details: for Papp at 18 hours, 50 µM: PAMPA
Procedure, shortened: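 Artificial membrane was 10% (w/v) egg lecithin plus 0.5% (w/v) cholesterol in dodecane on a PVDF filter. A 10 mM DMSO stock was added at 0.5% (v/v) to donor buffer (50 mM MOPSO, pH 6.5, 5.0% glycocholic acid). After 18 h at 37 °C, LC/MS or LC/UV gave donor and acceptor levels for Pe.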

[2] = Metabolic stability in human hepatic microsome; assay type: in vitro ADME; details: microsomes
[3] = pH 7.4, human hepatic microsome, NADPH(+), read-out: CL NADPH(+)
[4] = membrane permeation rate (Pe), 50 mM MOPSO buffer pH 6.5 with 5.0% glycocholic acid, 37° C., 18 hours, read-out: iPAMPA Pe

Row | Compound | Papp at 18 hours, 50 µM ([1]; pH 6.5) | microsomal CLint at 1 uM ([2]; human, pH 7.4, CL NADPH(+)) | iPAMPA Pe ([1]; membrane permeation rate (Pe), 50 mM MOPSO buffer pH 6.5 with 5.0% glycocholic acid, 37° C., 18 hours) | microsomal CLint at 1 uM [2, 3] | Papp at 18 hours, 50 µM [1, 4]
1 | CC(C)C[C@@H]1NC(=O)[C@H](Cc2cccnc2)NC(=O)[C@@H]2CCCN2C(=O)[C@H](C)NC(=O)[C@H](CC(C)C)N(C)C(=O)[C@H](Cc2ccccc2)NC(=O)[C@H](C)N(C)C(=O)[C@H](CC(C)C)N(C)C(=O)[C@H](Cc2ccccc2)NC(=O)[C@H](C)N(C)C(=O)C[C@@H](C(=O)N(C)[C@@H](Cc2ccccc2)C(=O)N[C@@H](C)C(=O)N2CCCCC2)NC1=O [DP-599] ([NMeA]F[NMeL][NMeA]F[NMeL]AP[3Pal]LD[NMeF]A-Piperidide; lactam N-11) | 28 ×10⁻⁶ cm/s | 84 µL/min/mg | – | – | –
2 | CC(C)C[C@@H]1NC(=O)[C@H](Cc2cccnc2)NC(=O)[C@H](Cc2ccccc2)N(C)C(=O)[C@H](CC(C)C)NC(=O)[C@H](CC(C)C)N(C)C(=O)[C@H](Cc2ccccc2)NC(=O)[C@H](CC(C)C)N(C)C(=O)[C@H](CC(C)C)N(C)C(=O)[C@H](Cc2ccccc2)NC(=O)CN(C)C(=O)C[C@@H](C(=O)N(C)[C@@H](Cc2ccccc2)C(=O)N[C@@H](C)C(=O)N2CCCCC2)NC1=O [DP-600] ([Sar]F[NMeL][NMeL]F[NMeL]L[NMeF][3Pal]LD[NMeF]A-Piperidide; lactam N-11) | – | – | 1.0E−07 | 12 µL/min/mg | –
3 | CC(C)C[C@@H]1NC(=O)[C@H](CC(C)C)N(C)C(=O)[C@H](CC(C)C)N(C)C(=O)[C@H](CC(C)C)NC(=O)[C@H](Cc2ccccc2)N(C)C(=O)[C@H](CCS(C)(=O)=O)NC(=O)[C@H](CC(C)C)N(C)C(=O)[C@H](Cc2ccccc2)NC(=O)[C@H](C)NC(=O)C[C@@H](C(=O)N(C)[C@@H](Cc2ccccc2)C(=O)N[C@@H](C)C(=O)N2CCCCC2)NC1=O [DP-607] (AF[NMeL][Met(O2)][NMeF]L[NMeL][NMeL]LD[NMeF]A-Piperidide; lactam N-10) | – | – | – | 2 µL/min/mg | 1.2 ×10⁻⁶ cm/s
4 | CC(C)C[C@@H]1NC(=O)[C@H](CC(C)C)N(C)C(=O)[C@H](C)N(C)C(=O)[C@@H](C(C)C)NC(=O)C[C@@H](C(=O)N2CCCCC2)NC(=O)[C@H](CCC(N)=O)NC(=O)[C@H](CC(C)C)N(C)C(=O)CN(C)C(=O)[C@H](CC(C)C)N(C)C(=O)[C@H](Cc2ccccc2)NC(=O)[C@H](Cc2ccccc2)N(C)C1=O [DP-617] ([dV][NMeA][NMeL]L[NMeF]F[NMeL][Sar][NMeL]QD-Piperidide; lactam N-11) | – | – | – | 30 µL/min/mg | 29 ×10⁻⁶ cm/s
5 | CC(C)C[C@@H]1NC(=O)[C@H](CC(C)C)N(C)C(=O)[C@H](C)N(C)C(=O)[C@@H](C(C)C)NC(=O)C[C@@H](C(=O)N2CCCCC2)NC(=O)[C@H](CCC(=O)N(C)C)NC(=O)[C@H](CC(C)C)N(C)C(=O)[C@H](C)N(C)C(=O)[C@H](CC(C)C)N(C)C(=O)[C@H](Cc2ccccc2)NC(=O)[C@H](Cc2ccccc2)N(C)C1=O [DP-618] ([dV][NMeA][NMeL]L[NMeF]F[NMeL][NMeA][NMeL]E(NMe2)D-Piperidide; lactam N-11) | – | – | – | 39 µL/min/mg | 28 ×10⁻⁶ cm/s
6 | CC(C)C[C@@H]1NC(=O)[C@H](CC(C)C)N(C)C(=O)[C@H](C)N(C)C(=O)[C@@H](C(C)C)NC(=O)C[C@@H](C(=O)N2CCCCC2)NC(=O)[C@H]([C@@H](C)O)NC(=O)[C@H](C)N(C)C(=O)[C@H](C)N(C)C(=O)[C@H](CC(C)C)N(C)C(=O)[C@H](Cc2ccc(O)c(F)c2)NC(=O)[C@H](Cc2ccccc2)N(C)C1=O [DP-619] ([dV][NMeA][NMeL]L[NMeF][Tyr(3-F)][NMeL][NMeA][NMeA]TD-Piperidide; lactam N-11) | – | – | – | 29 µL/min/mg | 12 ×10⁻⁶ cm/s
7 | CC(C)C[C@@H]1NC(=O)[C@H](CC(C)C)N(C)C(=O)[C@H](C)N(C)C(=O)[C@@H](C(C)C)NC(=O)C[C@@H](C(=O)N2CCCCC2)NC(=O)[C@H](CCS(C)(=O)=O)NC(=O)[C@H](CC(C)C)N(C)C(=O)[C@H](C)N(C)C(=O)[C@H](CC(C)C)N(C)C(=O)[C@H](Cc2ccccc2)NC(=O)[C@H](Cc2ccccc2)N(C)C1=O [DP-620] ([dV][NMeA][NMeL]L[NMeF]F[NMeL][NMeA][NMeL][Met(O2)]D-Piperidide; lactam N-11) | – | – | – | 26 µL/min/mg | 24 ×10⁻⁶ cm/s
8 | CC(C)C[C@H]1C(=O)N(C)[C@@H](Cc2ccccc2)C(=O)N(C)[C@@H](CC(C)C)C(=O)N[C@@H]([C@@H](C)O)C(=O)N[C@H](C(=O)N2CCCCC2)CC(=O)N[C@H](C(C)C)C(=O)N(C)[C@@H](C)C(=O)N(C)[C@@H](CC(C)C)C(=O)N[C@@H](CCS(C)(=O)=O)C(=O)N(C)[C@@H](Cc2ccccc2)C(=O)N[C@@H](Cc2ccccc2)C(=O)N1C [DP-621] ([dV][NMeA][NMeL][Met(O2)][NMeF]F[NMeL][NMeF][NMeL]TD-Piperidide; lactam N-11) | – | – | – | 11 µL/min/mg | 21 ×10⁻⁶ cm/s
9 | CC(C)C[C@@H]1NC(=O)[C@H](CC(C)C)N(C)C(=O)[C@H](C)N(C)C(=O)[C@@H](C(C)C)NC(=O)C[C@@H](C(=O)N2CCCCC2)NC(=O)[C@H](Cc2cscn2)NC(=O)[C@H](C)N(C)C(=O)[C@H](C)N(C)C(=O)[C@H](C)N(C)C(=O)[C@H](Cc2ccccc2)NC(=O)[C@H](Cc2ccccc2)N(C)C1=O [DP-624] ([dV][NMeA][NMeL]L[NMeF]F[NMeA][NMeA][NMeA][Ala(4-thiazolyl)]D-Piperidide; lactam N-11) | – | – | – | 30 µL/min/mg | 24 ×10⁻⁶ cm/s
10 | CC(C)C[C@@H]1NC(=O)[C@H](CC(C)C)N(C)C(=O)[C@H](C)N(C)C(=O)[C@@H](C(C)C)NC(=O)C[C@@H](C(=O)N2CCCCC2)NC(=O)[C@H]([C@@H](C)O)NC(=O)[C@H](Cc2ccccc2)N(C)C(=O)[C@H](C)N(C)C(=O)[C@H](CC(C)C)N(C)C(=O)[C@H](Cc2cscn2)NC(=O)[C@H](Cc2ccccc2)N(C)C1=O [DP-625] ([dV][NMeA][NMeL]L[NMeF][Ala(4-thiazolyl)][NMeL][NMeA][NMeF]TD-Piperidide; lactam N-11) | – | – | – | 27 µL/min/mg | 26 ×10⁻⁶ cm/s
11 | CNC(=O)CC[C@@H]1NC(=O)[C@H](CC(C)C)N(C)C(=O)[C@H](C)N(C)C(=O)[C@H](CC(C)C)N(C)C(=O)[C@H](Cc2ccccc2)NC(=O)[C@H](Cc2ccccc2)N(C)C(=O)[C@H](CC(C)C)NC(=O)[C@H](CC(C)C)N(C)C(=O)[C@H](C)N(C)C(=O)[C@@H](C(C)C)NC(=O)C[C@@H](C(=O)N2CCCCC2)NC1=O [DP-626] ([dV][NMeA][NMeL]L[NMeF]F[NMeL][NMeA][NMeL]E(NHMe)D-Piperidide; lactam N-11) | – | – | – | 28 µL/min/mg | 36 ×10⁻⁶ cm/s
12 | CNC(=O)CC[C@@H]1NC(=O)[C@H](CC(C)C)N(C)C(=O)[C@H](C)N(C)C(=O)[C@@H](C(C)C)NC(=O)C[C@@H](C(=O)N2CCCCC2)NC(=O)[C@H]([C@@H](C)O)NC(=O)[C@H](C)N(C)C(=O)CN(C)C(=O)[C@H](CC(C)C)N(C)C(=O)[C@H](Cc2ccccc2)NC(=O)[C@H](Cc2ccccc2)N(C)C1=O [DP-627] ([dV][NMeA][NMeL]E(NHMe)[NMeF]F[NMeL][Sar][NMeA]TD-Piperidide; lactam N-11) | – | – | – | 9 µL/min/mg | 2.4 ×10⁻⁶ cm/s
13 | CC(C)C[C@H]1C(=O)N(C)[C@@H](CC(C)C)C(=O)N[C@H](C(=O)N(C)[C@@H](Cc2ccccc2)C(=O)N[C@@H](C)C(=O)N2CCCCC2)CC(=O)N[C@H](C(C)C)C(=O)N(C)[C@@H](C)C(=O)N(C)[C@@H](Cc2ccccc2)C(=O)N(C)[C@@H](C)C(=O)N[C@@H](CCCCN(C)C)C(=O)N(C)CC(=O)N[C@@H](C(C)C)C(=O)N1C [DP-631] ([dV][NMeA][NMeF][NMeA][Lys(Me2)][Sar]V[NMeL][NMeL]D[NMeF]A-Piperidide; lactam N-10) | – | – | – | 5 µL/min/mg | 1.6 ×10⁻⁶ cm/s
